1 compound from patent US20040266747A1, “Long chain fatty alcohol substituents in antineoplastic agents” (priority 2001, published 2004) can be followed below.

In one experiment the test system is EA.hy 926. Put plainly: Cytotoxic activity, MTT colorimetric cell growth assay. It counts as cell-based. The following applies: Homo sapiens; EA.hy 926 cells, 72 h cultivation with agent, 37° C.; read-out: Cell line and cyctotoxic acivity IC50, EA.hy 926. How it is done: (§1) Experiments were performed in microtiter plates (2×10^4 cells/cm^2) at 37° C. After a precultivation period of 24 h the antineoplastic agent was added and cultivation was continued for 72 h. Cell growth was determined by a colorimetric assay based on the conversion of 3-(4,5-dimethyl-2-thiazolyl)-2,5-diphenyltetrazolium (MMT) to a blue formazan product using live mitochondria according to Mosmann, J. Immunolog. Methods 1983, 65, 55.

A further experiment concerns MHEC 5T. The experiment is described as above. It counts as cell-based. The following applies: MHEC5-T; MHEC 5T cells, 72 h cultivation with agent, 37° C.; read-out: Cell line and cyctotoxic acivity IC50, MHEC 5T. How it is done: as §1

SMILES strings stand for the structures. Converted amounts (≈) assume the structure as drawn.

One may read the IC50 as the concentration needed to halve the response being measured.

Consider `O=c1[nH]c(=O)n(COCCCCCCCCCCCCO)cc1F` [Compound 3b, 5-Fluoro-1-((12′-hydroxydodecyloxy)-methyl)-uracil], for which the IC50 in the experiment with EA.hy 926 is 45 µg/mL (≈ 131 µM); in the experiment on MHEC 5T it was 14 µg/mL (≈ 40.6 µM).
